Measured values as given in ChEMBL document CHEMBL1130517 (Bioorg Med Chem Lett, 1997).

Experiments:
[1] = molecular target: T1, Endothelin receptor type B (Homo sapiens, UniProt P24530); test: Receptor binding affinity was determined against [125I]ET1 with membranes prepared from human placenta for ETB receptor
T1 sequence (P24530 whole entry): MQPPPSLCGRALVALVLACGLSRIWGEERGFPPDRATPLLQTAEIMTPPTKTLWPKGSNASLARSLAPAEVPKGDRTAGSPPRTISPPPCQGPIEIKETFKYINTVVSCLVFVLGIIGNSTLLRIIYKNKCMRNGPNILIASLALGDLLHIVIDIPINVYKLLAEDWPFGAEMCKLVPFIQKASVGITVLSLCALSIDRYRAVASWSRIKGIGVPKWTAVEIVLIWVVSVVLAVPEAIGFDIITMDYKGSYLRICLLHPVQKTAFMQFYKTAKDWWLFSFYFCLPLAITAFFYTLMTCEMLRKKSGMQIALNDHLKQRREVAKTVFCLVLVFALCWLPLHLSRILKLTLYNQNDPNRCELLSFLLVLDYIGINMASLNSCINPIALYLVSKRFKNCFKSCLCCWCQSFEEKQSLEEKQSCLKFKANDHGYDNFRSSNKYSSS

[2] = molecular target: T2, Endothelin-1 receptor (Rattus norvegicus, UniProt P26684); test: Evaluation for functional inhibitory potency prevention of ET-1 induced constriction of rat aortic rings (ETA receptors); details: read-out: pA2 (converted)
T2 sequence (P26684 whole entry): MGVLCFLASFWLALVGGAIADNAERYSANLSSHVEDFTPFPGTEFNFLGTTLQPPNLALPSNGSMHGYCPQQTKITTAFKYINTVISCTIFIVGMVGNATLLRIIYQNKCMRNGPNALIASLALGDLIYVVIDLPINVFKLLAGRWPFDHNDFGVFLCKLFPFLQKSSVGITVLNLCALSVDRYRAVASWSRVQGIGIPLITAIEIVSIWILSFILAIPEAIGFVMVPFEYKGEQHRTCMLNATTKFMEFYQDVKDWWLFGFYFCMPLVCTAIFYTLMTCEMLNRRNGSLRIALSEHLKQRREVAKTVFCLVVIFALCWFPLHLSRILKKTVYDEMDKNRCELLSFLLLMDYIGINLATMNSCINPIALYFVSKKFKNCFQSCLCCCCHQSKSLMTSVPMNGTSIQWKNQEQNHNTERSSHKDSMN

[3] = molecular target: T3, Endothelin-1 receptor (Homo sapiens, UniProt P25101); test: Receptor binding affinity was determined against [125I]ET1 with recombinant human ETA receptor, expressed in baculovirus-infected Sf9 cells
T3 sequence (P25101 whole entry): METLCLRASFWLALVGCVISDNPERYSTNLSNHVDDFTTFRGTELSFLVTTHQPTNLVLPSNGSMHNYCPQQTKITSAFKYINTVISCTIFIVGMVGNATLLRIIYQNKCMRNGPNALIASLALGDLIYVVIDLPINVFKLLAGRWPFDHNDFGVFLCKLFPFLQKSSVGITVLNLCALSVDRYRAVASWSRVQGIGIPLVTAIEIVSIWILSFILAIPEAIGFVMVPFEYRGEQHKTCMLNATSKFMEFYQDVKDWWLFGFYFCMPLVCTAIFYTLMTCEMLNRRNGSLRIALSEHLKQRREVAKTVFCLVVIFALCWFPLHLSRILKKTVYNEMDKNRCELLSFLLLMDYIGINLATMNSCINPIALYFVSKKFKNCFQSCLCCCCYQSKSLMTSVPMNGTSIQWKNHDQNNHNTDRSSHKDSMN

[4] = molecular target: T4, Endothelin receptor type B (Rattus norvegicus, UniProt P21451); test: Compound was evaluated for in vitro functional inhibitory potency for prevention of sarafotoxin S6c induced constriction of rat tracheal rings (ETB receptors); details: read-out: pA2 (converted)
T4 sequence (P21451 whole entry): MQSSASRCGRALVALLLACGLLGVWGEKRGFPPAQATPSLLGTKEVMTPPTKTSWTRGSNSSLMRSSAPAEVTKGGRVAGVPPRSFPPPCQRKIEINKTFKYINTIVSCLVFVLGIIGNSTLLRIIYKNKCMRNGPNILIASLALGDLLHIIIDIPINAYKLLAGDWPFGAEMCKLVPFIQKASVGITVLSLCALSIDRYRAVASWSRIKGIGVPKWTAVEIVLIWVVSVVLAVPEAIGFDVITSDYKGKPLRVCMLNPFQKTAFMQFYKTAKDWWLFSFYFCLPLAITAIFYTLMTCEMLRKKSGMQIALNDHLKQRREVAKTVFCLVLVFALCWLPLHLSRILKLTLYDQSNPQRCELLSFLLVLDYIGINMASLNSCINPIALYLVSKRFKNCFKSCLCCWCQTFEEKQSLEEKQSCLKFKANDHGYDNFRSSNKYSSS

[5] = molecular target: T2, Endothelin-1 receptor; test: Compound was evaluated for in vitro functional inhibitory potency for prevention of ET-1 induced constriction of rat aortic rings (ETA receptors); details: read-out: pA2 (converted)
[6] = molecular target: T3, Endothelin-1 receptor; test: Receptor binding affinity was determined in a radioligand binding assay against [125I]ET1 with recombinant human ETA receptor, expressed in baculovirus-infected […] cells

| Structure (SMILES) | IC50 [1] [nM] | Kb [2] [nM] | IC50 [3] [nM] | Kb [4] [nM] | Kb [5] [nM] | IC50 [6] [nM] |
| --- | --- | --- | --- | --- | --- | --- |
| COc1ccccc1Oc1c(NS(=O)(=O)c2ccc(C(C)(C)C)cc2)nc(C)nc1OCCOC(=O)Nc1ccncc1 | 2800 |  | 1900 |  |  |  |
| COc1ccccc1Oc1c(NS(=O)(=O)c2ccc(C(C)C)cn2)nc(N2CCSCC2)nc1OCCOC(=O)Nc1ccccn1 | 14 | 1.58 | 1 |  |  |  |
| CNCC(=O)OCCOc1nc(C)nc(NS(=O)(=O)c2ccc(C(C)(C)C)cc2)c1Oc1ccccc1OC | 300 |  | 1700 |  |  |  |
| COc1ccccc1Oc1c(NS(=O)(=O)c2ccc(C(C)(C)C)cc2)nc(-c2ncccn2)nc1OCCOC(=O)Nc1ccccn1 | 43 | 1 |  |  |  |  |
| COc1ccccc1Oc1c(NS(=O)(=O)c2ccc(C(C)C)cn2)nc(-c2ncccn2)nc1OCCOC(=O)Nc1ccccn1 | 49 | 0.1 | 4 |  |  |  |
| COc1ccccc1Oc1c(NS(=O)(=O)c2ccc(C)cn2)nc(-c2ncccn2)nc1OCCOC(=O)Nc1ccccn1 | 170 | 1 | 4 |  |  |  |
| COc1ccccc1Oc1c(NS(=O)(=O)c2ccc(C(C)(C)C)cc2)nc(N2CCOCC2)nc1OCCOC(=O)Nc1ccccn1 | 19 | 10 | 17 |  |  |  |
| COc1ccccc1Oc1c(NS(=O)(=O)c2ccc(C(C)(C)C)cc2)nc(-c2cccs2)nc1OCCOC(=O)Nc1ccccn1 | 200 | 10 | 30 |  |  |  |
| COc1ccccc1Oc1c(NS(=O)(=O)c2ccc(C)cn2)nc(N2CCOCC2)nc1OCCOC(=O)Nc1ccccn1 | 25 | 0.2 | 0.2 |  |  |  |
| COc1ccccc1Oc1c(NS(=O)(=O)c2ccc(C(C)(C)C)cc2)nc(C)nc1OCCOC(=O)c1cccnc1 | 770 |  | 880 |  |  |  |
| COc1ccccc1Oc1c(NS(=O)(=O)c2ccc(C(C)C)cn2)nc(N2CCCCC2)nc1OCCOC(=O)Nc1ccccn1 | 25 | 5.01 | 3 |  |  |  |
| COc1ccccc1Oc1c(NS(=O)(=O)c2ccc(C(C)C)cn2)nc(N2CCOCC2)nc1OCCOC(=O)Nc1ccccn1 | 5 |  | 0.3 | 25.1 | 0.501 | 0.7 |
| COc1ccccc1Oc1c(NS(=O)(=O)c2ccc(C(C)(C)C)cc2)nc(C)nc1OCCO | 70 |  | 1500 |  |  |  |
| COc1ccccc1Oc1c(NS(=O)(=O)c2ccc(C(C)(C)C)cc2)nc(C)nc1OCCOC(=O)c1ccoc1 | 1000 |  | 1100 |  |  |  |
| COc1ccccc1Oc1c(NS(=O)(=O)c2ccc(C(C)(C)C)cc2)nc(-c2ncccn2)nc1OCCO [BOSENTAN] |  |  |  | 1580 | 50.1 |  |

The next lines start with results.

| IC50 [1] [nM] | Kb [2] [nM] | IC50 [3] [nM] | Structure (SMILES) | Kb [4] [nM] | Kb [5] [nM] | IC50 [6] [nM] |
| --- | --- | --- | --- | --- | --- | --- |
| 63 | 12.6 | 9 | CCCc1nc(NS(=O)(=O)c2ccc(C(C)(C)C)cc2)c(Oc2ccccc2OC)c(OCCOC(=O)Nc2ccccn2)n1 |  |  |  |
| 144 | 25.1 | 14 | COc1ccccc1Oc1c(NS(=O)(=O)c2ccc(C(C)(C)C)cc2)nc(C(C)(C)C)nc1OCCOC(=O)Nc1ccccn1 |  |  |  |
| 60 | 20 | 7 | COc1ccccc1Oc1c(NS(=O)(=O)c2ccc(C(C)(C)C)cc2)nc(C2CC2)nc1OCCOC(=O)Nc1ccccn1 |  |  |  |
| 700 |  | 900 | COc1ccccc1Oc1c(NS(=O)(=O)c2ccc(C(C)(C)C)cc2)nc(C)nc1OCCOC(=O)Nc1cccnc1 |  |  |  |
| 120 |  | 8 | COc1ccccc1Oc1c(NS(=O)(=O)c2ccc(C(C)(C)C)cc2)nc(C)nc1OCCOC(=O)Nc1ccccn1 |  |  |  |
| 1240 |  | 80 | COc1ccccc1Oc1c(NS(=O)(=O)c2ccc(C(C)(C)C)cc2)nc(C)nc1OCCNC(=O)Nc1ccccn1 |  |  |  |
| 160 | 15.8 | 7 | COc1ccccc1Oc1c(NS(=O)(=O)c2ccc(C(C)(C)C)cc2)nc(C(C)C)nc1OCCOC(=O)Nc1ccccn1 |  |  |  |
